Measurements reported in patent US20250304911A1, “CYSTEINE PROTOTROPHY” (Pfizer Inc., priority 2022, published 2025).

Tests used:
GNMT cell pool = experiment: Sequential batch culture of GNMT cell pool with or without BME; type: cell-based, Chinese hamster; details: cysteine-free CD-CHO, 50 uM BME, within one passage, FIG. 8
Method: (§1) GNMT cell pools and CBS+CTH cell pools that had been adapted to grown in cysteine-free and homocysteine-free conditions as described in Example 7 were cultivated in 3-day or 4-day sequential batch cultures in cysteine-free CD-CHO media with or without 50 uM BME with the aim of testing the growth and adapting the cells to BME free conditions.

CBS+CTH cell pool = experiment: Sequential batch culture of CBS+CTH cell pool with or without BME; type: cell-based, Chinese hamster; details: cysteine-free CD-CHO, 50 uM BME, FIG. 8
Method: as §1

GNMT clone 9 = experiment: Batch shake flask maintenance culture with oleic acid and ferroptosis inducers, GNMT clone 9; details: for Viability / Viable Cell Density: Clone 9
Method: (§2) Two GNMT clones, clone 9 and 16, were cultivated for two passages in cysteine-free CD-CHO medium with and without oleic acid. In the oleic acid supplemented conditions, first passage received 1 micromolar (uM) of oleic acid and the second passage received 10 uM of oleic acid. In the third passage, the clones were cultivated in absence of OA but growth in presence of ferroptosis inducers, iron (12 uM ferrous sulphate) and zinc (10 uM zinc sulfate) to understand impact of prior culture in OA on ferroptosis.

GNMT clone 16 = experiment: Batch shake flask maintenance culture with oleic acid and ferroptosis inducers, GNMT clone 16; details: for Viability / Viable Cell Density: Clone 16; for Growth and viability in iron and zinc supplemented cultures compared to untreated: 12 uM ferrous sulphate, 10 uM zinc sulfate, with or without prior OA
Method: as §2

GNMT clone 15 = experiment: pH-adjusted fedbatch culture with Fer1, OA or Vitamin K1, GNMT clone 15; type: cell-based, Chinese hamster; details: for Viabilities by the end of the culture, treated versus untreated: 1 uM Fer1 or 10 uM OA on days 0, 5 and 6, FIG. 11A
Method: (§3) Two GNMT clones (overexpressing CBS, CTH and GNMT), clone 15 and 19, were cultivated in pH-adjusted fedbatch cultures in multiple shake flasks. Cells were seeded at 0.5E6 cell/mL in cysteine-free internal basal medium and were fed with 1% cysteine-free, nutrient rich medium daily starting day 4. For the first set of shake flasks, cultures for each clone were treated with 1 uM of Fer1 or 10 uM of OA on days 0, 5 and 6, or left untreated. For the second set of shake flasks, cultures for each clone were treated with 10 uM of Vitamin K1 on days, 0, 4, 5 and 6. Viable cell densities and viabilities were measured on various days during the fedbatch culture.

GNMT clone 19 = experiment: pH-adjusted fedbatch culture with Fer1, OA or Vitamin K1, GNMT clone 19; type: cell-based, Chinese hamster; details: 10 uM Vitamin K1 on days 0, 4, 5 and 6, FIG. 11B
Method: as §3

[1] = tested on: CBS+CTH cells (CHO cell pools overexpressing CBS and CTH); experiment: Growth of CBS+CTH cell pool in L-homocysteine supplemented cysteine free CD CHO medium; type: cell-based, Chinese hamster; details: FIG. 4
Method: (§4) Next, the growth of CHO cell pools overexpressing CBS and CTH (referred to as “CBS+CTH” cells) or overexpressing CBS, CTH and GNMT (referred to as “GNMT” cells) was evaluated in cysteine free CD CHO medium or L-homocysteine supplemented cysteine free CD CHO medium. […] Subsequently, as described in more detail in Example 7, the CBS+CTH and the GNMT cell pools were adapted to grow in L-homocysteine free conditions. For both the CBS+CTH and GNMT cell pools, gene expression levels of CTH, CBS, GNMT and MTR were measured before and after adaptation to L-homocysteine free conditions (Table 5).

[2] = tested on: GNMT cells (CHO cell pools overexpressing CBS, CTH and GNMT); experiment: Growth of GNMT cell pool in L-homocysteine supplemented cysteine free CD CHO medium; type: cell-based, Chinese hamster; details: FIG. 4
Method: as §4

[3] = +10 uM OA (prior passages), Day 0, CD CHO alone, + 12 uM FeSO4 or + 10 uM ZnSO4
[4] = +10 uM OA (prior passages), Day 3, CD CHO alone, + 12 uM FeSO4 or + 10 uM ZnSO4
[5] = +10 uM OA (prior passages), Day 4, CD CHO alone, + 12 uM FeSO4 or + 10 uM ZnSO4
[6] = No OA, Day 0, CD CHO + 12 uM FeSO4 or + 10 uM ZnSO4
[7] = No OA, Day 3, CD CHO + 12 uM FeSO4 or + 10 uM ZnSO4
[8] = No OA, Day 4, CD CHO + 12 uM FeSO4 or + 10 uM ZnSO4

Q: With OCCS [BME, beta mercaptoethanol] as the compound, how does the “Growth and viability in BME free conditions versus with BME” value (GNMT cell pool) read?
A: Its value is “comparable”.

Q: And the “Growth and viabilities between BME-free and BME containing conditions” value (CBS+CTH cell pool)?
A: The value was “significantly different growth and viabilities”.

Q: With O=S(=O)([O-])[O-].[Zn+2] [ZnSO4, zinc sulfate] as the compound, how does the Viability (GNMT clone 9; [3]) read?
A: The Viability was 98.9%.

Q: What about the “Viable Cell Density” value (GNMT clone 9; [3]) of the same compound?
A: The value was 3.11 E5 c/mL.

Q: What about the Viability (GNMT clone 9; [4]) of the same compound?
A: Its Viability is 97.7%.

Q: And the “Viable Cell Density” value (GNMT clone 9; [4])?
A: Its value is 16.78 E5 c/mL.

Q: What about the Viability (GNMT clone 9; [5]) of the same compound?
A: The Viability was 96.4%.

Q: What about the “Viable Cell Density” value (GNMT clone 9; [5]) of the same compound?
A: Its value is 30.16 E5 c/mL.

Q: And the Viability (GNMT clone 9; [6])?
A: Its Viability is 100%.

Q: And the “Viable Cell Density” value (GNMT clone 9; [6])?
A: The value was 3.55 E5 c/mL.

Q: What about the Viability (GNMT clone 9; [7]) of the same compound?
A: Its Viability is 97.9%.

Q: And the “Viable Cell Density” value (GNMT clone 9; [7])?
A: The value was 17.26 E5 c/mL.

Q: What about the Viability (GNMT clone 9; [8]) of the same compound?
A: Its Viability is 96.7%.

Q: And the “Viable Cell Density” value (GNMT clone 9; [8])?
A: Its value is 32.29 E5 c/mL.

Q: And the Viability (GNMT clone 16; [3])?
A: The Viability was 99.6%.

Q: What about the “Viable Cell Density” value (GNMT clone 16; [3]) of the same compound?
A: The value was 3.84 E5 c/mL.

Q: What about the Viability (GNMT clone 16; [4]) of the same compound?
A: Its Viability is 96.2%.

Q: What about the “Viable Cell Density” value (GNMT clone 16; [4]) of the same compound?
A: Its value is 13.62 E5 c/mL.

Q: What about the Viability (GNMT clone 16; [5]) of the same compound?
A: Its Viability is 96%.

Q: What about the “Viable Cell Density” value (GNMT clone 16; [5]) of the same compound?
A: The value was 32.19 E5 c/mL.

Q: And the Viability (GNMT clone 16; [6])?
A: Its Viability is 99.2%.

Q: What about the “Viable Cell Density” value (GNMT clone 16; [6]) of the same compound?
A: The value was 4.31 E5 c/mL.

Q: What about the Viability (GNMT clone 16; [7]) of the same compound?
A: Its Viability is 94.9%.

Q: And the “Viable Cell Density” value (GNMT clone 16; [7])?
A: The value was 12.27 E5 c/mL.

Q: And the Viability (GNMT clone 16; [8])?
A: Its Viability is 94.1%.

Q: What about the “Viable Cell Density” value (GNMT clone 16; [8]) of the same compound?
A: Its value is 23.99 E5 c/mL.

Q: And the “Growth and viability in iron and zinc supplemented cultures compared to untreated” value (GNMT clone 16; clone 16, third passage)?
A: Its value is “lower”.

Q: With CCCCCCCC/C=C\CCCCCCCC(=O)O [OA, oleic acid] as the compound, how does the “Viable Cell Density” value (GNMT clone 9; [3]) read?
A: Its value is 3.85 E5 c/mL.

Q: And the “Viable Cell Density” value (GNMT clone 9; [4])?
A: Its value is 21.99 E5 c/mL.

Q: And the “Viable Cell Density” value (GNMT clone 9; [5])?
A: Its value is 42.9 E5 c/mL.

Q: What about the “Benefit of exposure to OA on growth and viability” value (GNMT clone 9; clone 9, third passage, prior passages with 1 uM then 10 uM oleic acid) of the same compound?
A: The value was “not observed”.

Q: And the “Viabilities by the end of the culture, treated versus untreated” value (GNMT clone 15)?
A: Its value is “slightly higher viabilities”.

Q: And the “Viable Cell Density” value (GNMT clone 16; [3])?
A: Its value is 4.44 E5 c/mL.

Q: And the “Viable Cell Density” value (GNMT clone 16; [4])?
A: The value was 22.52 E5 c/mL.

Q: And the “Viable Cell Density” value (GNMT clone 16; [5])?
A: The value was 48.33 E5 c/mL.

Q: And the “Growth and viabilities of OA exposed versus unexposed conditions” value (GNMT clone 16; clone 16, third passage, prior passages with 1 uM then 10 uM oleic acid)?
A: The value was “higher growth and viabilities”.

Q: CCOC(=O)c1ccc(NC2CCCCC2)c(N)c1 [Fer1, ferrostatin 1] was tested. Which “Viabilities by the end of the culture, treated versus untreated” value (GNMT clone 15) did it give?
A: The value was “slightly higher viabilities”.

Q: How did the Viability (GNMT clone 9; [3]) turn out when O=S(=O)([O-])[O-].[Fe+2] [FeSO4, ferrous sulphate] was run?
A: The Viability was 99.6%.

Q: And the “Viable Cell Density” value (GNMT clone 9; [3])?
A: The value was 3.45 E5 c/mL.

Q: And the Viability (GNMT clone 9; [4])?
A: The Viability was 99.2%.

Q: And the “Viable Cell Density” value (GNMT clone 9; [4])?
A: Its value is 21.94 E5 c/mL.

Q: And the Viability (GNMT clone 9; [5])?
A: Its Viability is 99.1%.

Q: And the “Viable Cell Density” value (GNMT clone 9; [5])?
A: Its value is 38.38 E5 c/mL.

Q: What about the Viability (GNMT clone 9; [6]) of the same compound?
A: Its Viability is 100%.

Q: And the “Viable Cell Density” value (GNMT clone 9; [6])?
A: Its value is 3.54 E5 c/mL.

Q: And the Viability (GNMT clone 9; [7])?
A: The Viability was 99.2%.

Q: What about the “Viable Cell Density” value (GNMT clone 9; [7]) of the same compound?
A: Its value is 19.65 E5 c/mL.

Q: And the Viability (GNMT clone 9; [8])?
A: The Viability was 99.3%.

Q: And the “Viable Cell Density” value (GNMT clone 9; [8])?
A: Its value is 39.74 E5 c/mL.

Q: And the Viability (GNMT clone 16; [3])?
A: The Viability was 99.6%.

Q: What about the “Viable Cell Density” value (GNMT clone 16; [3]) of the same compound?
A: Its value is 3.63 E5 c/mL.

Q: And the Viability (GNMT clone 16; [4])?
A: The Viability was 98.6%.

Q: What about the “Viable Cell Density” value (GNMT clone 16; [4]) of the same compound?
A: Its value is 19.21 E5 c/mL.

Q: And the Viability (GNMT clone 16; [5])?
A: The Viability was 99.2%.

Q: What about the “Viable Cell Density” value (GNMT clone 16; [5]) of the same compound?
A: The value was 40.8 E5 c/mL.

Q: What about the Viability (GNMT clone 16; [6]) of the same compound?
A: Its Viability is 98.7%.

Q: What about the “Viable Cell Density” value (GNMT clone 16; [6]) of the same compound?
A: The value was 4.02 E5 c/mL.

Q: And the Viability (GNMT clone 16; [7])?
A: The Viability was 98.5%.

Q: What about the “Viable Cell Density” value (GNMT clone 16; [7]) of the same compound?
A: Its value is 14.07 E5 c/mL.

Q: What about the Viability (GNMT clone 16; [8]) of the same compound?
A: The Viability was 99.1%.

Q: And the “Viable Cell Density” value (GNMT clone 16; [8])?
A: Its value is 31.09 E5 c/mL.

Q: What about the “Growth and viability in iron and zinc supplemented cultures compared to untreated” value (GNMT clone 16; clone 16, third passage) of the same compound?
A: The value was “lower”.

Q: What does the source list for CC1=C(C/C=C(\C)CCC[C@H](C)CCC[C@H](C)CCCC(C)C)C(=O)c2ccccc2C1=O [Vitamin K1]?
A: Growth and viability with Vitamin K1 supplementation (GNMT clone 19): improved growth and viability; Growth and viability with Vitamin K1 supplementation (GNMT clone 15; 10 uM Vitamin K1 on days 0, 4, 5 and 6, FIG. 11B): improved growth and viability

Q: For NC(CCS)C(=O)O [L-homocysteine, 2-amino-4-sulfanylbutanoic acid], which “Growth in L-homocysteine supplemented cysteine free medium” value [1] is on record?
A: Its value is “exhibited growth”.

Q: And the “Growth in L-homocysteine supplemented cysteine free medium” value [2]?
A: Its value is “exhibited growth”.
